We go through three compounds from PMC6516043, “Functional Analysis of the Chemosensory Protein GmolCSP8 From the Oriental Fruit Moth, Grapholita molesta (Busck) (Lepidoptera: Tortricidae)” (Frontiers in Physiology, 2019).

Assay [1] addresses T1, rGmolCSP8 (Grapholita molesta, UniProt A0A0M4FML8). The experiment in a line: Effect of pH on the binding affinity of rGmolCSP8. The method, then:
Based on the fluorescent binding assays described above, we further assessed the effects of pH on the binding abilities of GmolCSP8 with strongly bound ligand. The binding affinities of rGmolCSP8 to the representative ligand 1- hexanol were measured at six different pH values (4.0, 5.0, 6.8, 7.4, 8.0, and 8.8) in 20 mM Tris–HCl buffer. pH was adjusted by titrating concentrated hydrochloric acid using a PHS-3E pH meter (Shanghai Precision Scientific Instrument Co., Ltd., Shanghai, China). The binding assays and data processing were performed as described previously.
FIGURE 7 Effects of pH on the binding affinities of rGmolCSP8 with 1-hexanol. The mixture solution of 2 μM rGmolCSP8 protein and 2 μM 1-NPN was titrated with 1 mM 1-hexanol stock solution to final concentrations of 22 μM. All data represent a mean of three independent measurements, and the bars denote mean ± SEM.

Assay [2] addresses T2, GmolCSP8-V40A (Grapholita molesta, UniProt A0A0M4FML8, V55A). The experiment in a line: biochemical. The format is binding. The method, then: (§1) To determine whether GmolCSP8 is involved in odorant binding, fluorescence competitive binding assays were performed ([Zhong et al., 2012]). The fluorescence spectra were recorded using a fluorescence spectrophotometer (F-4500, Hitachi, Tokyo, Japan) in a 1 cm light path fluorimeter quartz cuvette with 10 nm slits for excitation and 20 nm slits for emission. The selected chemicals are listed in Table 2, and included four sex pheromone components and 34 volatiles from different host plants (peach and pear trees) of G. molesta based on previous investigations ([Natale et al., 2004]; [Lu et al., 2012]; [Najar-Rodriguez et al., 2013b]). The fluorescent probe N-phenyl-1-naphthylamine (1-NPN) and all putative ligands used in binding assays were dissolved in methanol (HPLC purity grade) to obtain a 1 mM stock solution. The rGmolCSP8 protein was diluted to in 20 mM Tris–HCl to obtain a 2 μM solution, pH 7.4. To measure the binding affinity of 1-NPN for GmolCSP8, a 2 μM solution of protein was titrated with aliquots of 1 mM 1-NPN prepared to final concentrations ranging from 1 to 22 μM. The fluorescent probe was excited at 337 nm and emission spectra were recorded from 370 to 550 nm. […] Binding data were obtained from three replicates assays for each concentration of each tested ligand. Dissociation constants (Kd) of protein to 1-NPN were calculated by non-linear regression, using GraphPad Prism 4.00 software (GraphPad Software Inc.). The inhibition constants (Ki) of the competitors were determined using the corresponding IC50 values (concentration of competitor that reduced the initial fluorescence intensity by half) based on the following equation: Ki = [IC50]/(1+[1-NPN]/K1-NPN), where [1-NPN] is the free concentration of 1-NPN and K1-NPN is the dissociation constant of the complex GmolCSP8/1-NPN.
(§2) To verify the four predicted key amino acid sites of GmolCSP8 binding for 1-hexanol, recombinant plasmids for four CSP8 mutants were obtained via site-directed mutagenesis experiments. Specific primers introducing mutation sites of the four key amino acid CSP8 plasmids (GmolCSP8-T27A, GmolCSP8-L30A, GmolCSP8-V40A, and GmolCSP8-L80A) were designed and are listed in Table 1. The four mutants were mutated by using the TaKaRa MutanBEST Kit (TaKaRa, Shiga, Japan) with the pMD®19-T/GmolCSP8 plasmid DNA as template. All plasmids containing mutations were validated by sequencing with five randomly selected single colonies. pMD®19-T plasmids including four CSP8 mutants were digested with Bam HI and Hind III restriction enzymes. Then, the target sequences were ligated into the expression vector pET28a (+) and transformed into BL21 (DE3) competent cells for expression. After sequencing verification, the corresponding rGmolCSP8 mutant proteins were induced and purified, and the binding affinities to 1-hexanol and its analogs were verified via ligand-binding assays according to the method described above.

Assay [3] deals with T3, GmolCSP8-L80A (Grapholita molesta, UniProt A0A0M4FML8, L95A). The experiment in a line: biochemical. The format is binding. The method, then:
as §1, §2

Assay [4] addresses T4, GmolCSP8-L30A (Grapholita molesta, UniProt A0A0M4FML8, L45A). The experiment in a line: biochemical. The class given is binding. The method, then:
as §1, §2

The target of assay [5] is T5, GmolCSP8-T27A (Grapholita molesta, UniProt A0A0M4FML8, T42A). The assay is described as follows: biochemical. The class given is binding. The method, then:
as §1, §2

Assay [6] has as its target T1, rGmolCSP8. The assay is described as follows: Fluorescence competitive binding assay (1-NPN displacement), wild-type. The method, then: The fluorescence spectra were recorded using a fluorescence spectrophotometer (F-4500, Hitachi, Tokyo, Japan) in a 1 cm light path fluorimeter quartz cuvette with 10 nm slits for excitation and 20 nm slits for emission. […] The fluorescent probe N-phenyl-1-naphthylamine (1-NPN) and all putative ligands used in binding assays were dissolved in methanol (HPLC purity grade) to obtain a 1 mM stock solution. The rGmolCSP8 protein was diluted to in 20 mM Tris–HCl to obtain a 2 μM solution, pH 7.4. […] The fluorescent probe was excited at 337 nm and emission spectra were recorded from 370 to 550 nm. […] Binding data were obtained from three replicates assays for each concentration of each tested ligand.

In assay [7] the target is T4, GmolCSP8-L30A. The assay is described as follows: Titration of protein with fluorescent probe 1-NPN, mutant L30A. The class given is binding. On the procedure: (§3) To determine whether GmolCSP8 is involved in odorant binding, fluorescence competitive binding assays were performed ([Zhong et al., 2012]). The fluorescence spectra were recorded using a fluorescence spectrophotometer (F-4500, Hitachi, Tokyo, Japan) in a 1 cm light path fluorimeter quartz cuvette with 10 nm slits for excitation and 20 nm slits for emission. The selected chemicals are listed in Table 2, and included four sex pheromone components and 34 volatiles from different host plants (peach and pear trees) of G. molesta based on previous investigations ([Natale et al., 2004]; [Lu et al., 2012]; [Najar-Rodriguez et al., 2013b]). […] The fluorescent probe was excited at 337 nm and emission spectra were recorded from 370 to 550 nm. […] Dissociation constants (Kd) of protein to 1-NPN were calculated by non-linear regression, using GraphPad Prism 4.00 software (GraphPad Software Inc.). The inhibition constants (Ki) of the competitors were determined using the corresponding IC50 values (concentration of competitor that reduced the initial fluorescence intensity by half) based on the following equation: Ki = [IC50]/(1+[1-NPN]/K1-NPN), where [1-NPN] is the free concentration of 1-NPN and K1-NPN is the dissociation constant of the complex GmolCSP8/1-NPN. […]

For assay [8], the target named is T3, GmolCSP8-L80A. The experiment in a line: Titration of protein with fluorescent probe 1-NPN, mutant L80A. The class given is binding. The method, then:
as §3

Assay [9] concerns the target T1, rGmolCSP8. The experiment in a line: Titration of protein with fluorescent probe 1-NPN, wild-type. The class given is binding. The conditions noted are these: wild-type rGmolCSP8, 2 μM protein, pH 7.4; read-out: Kd (dissociation constant) of 1-NPN. The method, then: To determine whether GmolCSP8 is involved in odorant binding, fluorescence competitive binding assays were performed ([Zhong et al., 2012]). The fluorescence spectra were recorded using a fluorescence spectrophotometer (F-4500, Hitachi, Tokyo, Japan) in a 1 cm light path fluorimeter quartz cuvette with 10 nm slits for excitation and 20 nm slits for emission. The selected chemicals are listed in Table 2, and included four sex pheromone components and 34 volatiles from different host plants (peach and pear trees) of G. molesta based on previous investigations ([Natale et al., 2004]; [Lu et al., 2012]; [Najar-Rodriguez et al., 2013b]). […] The fluorescent probe was excited at 337 nm and emission spectra were recorded from 370 to 550 nm. […] Dissociation constants (Kd) of protein to 1-NPN were calculated by non-linear regression, using GraphPad Prism 4.00 software (GraphPad Software Inc.). The inhibition constants (Ki) of the competitors were determined using the corresponding IC50 values (concentration of competitor that reduced the initial fluorescence intensity by half) based on the following equation: Ki = [IC50]/(1+[1-NPN]/K1-NPN), where [1-NPN] is the free concentration of 1-NPN and K1-NPN is the dissociation constant of the complex GmolCSP8/1-NPN.
FIGURE 5 Binding curve and relative Scatchard plot of 1-NPN to rGmolCSP8. […] The calculated dissociation constant of rGmolCSP8 was 13.85 μM. […]

In assay [10] the target is T5, GmolCSP8-T27A. The assay is described as follows: Titration of protein with fluorescent probe 1-NPN, mutant T27A. The class given is binding. The method, then: as §3
In assay [11] the target is T2, GmolCSP8-V40A. The experiment in a line: Titration of protein with fluorescent probe 1-NPN, mutant V40A. The format is binding. On the procedure:
as §3

Assay [12] has as its target GmolOBP15. Also on record: method as in Li et al., 2016a,b. The conditions noted are these: ref Li et al., 2016a,b; cited from earlier work.
Assay [13] concerns the target GmolOBP8. More on the design: method as in Li et al., 2016a,b. The conditions noted are these: ref Li et al., 2016a,b; cited from earlier work.
Assay [14] addresses GmolGOBP2. More on the design: method as in Li et al., 2016a,b. The conditions noted are these: ref Li et al., 2016a,b; cited from earlier work.

Like-named read-outs stand apart in the source and are kept apart here.

T1 sequence (A0A0M4FML8 entry or part of it): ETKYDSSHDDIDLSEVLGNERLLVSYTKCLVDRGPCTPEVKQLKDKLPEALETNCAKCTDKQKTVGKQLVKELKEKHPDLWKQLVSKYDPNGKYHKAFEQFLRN
T5 sequence (A0A0M4FML8 entry or part of it T42A): as the sequence (A0A0M4FML8 entry or part of it) above, with T27A counted along it
T4 sequence (A0A0M4FML8 entry or part of it L45A): as the sequence (A0A0M4FML8 entry or part of it) above, with L30A counted along it
T2 sequence (A0A0M4FML8 entry or part of it V55A): as the sequence (A0A0M4FML8 entry or part of it) above, with V40A counted along it
T3 sequence (A0A0M4FML8 entry or part of it L95A): as the sequence (A0A0M4FML8 entry or part of it) above, with L80A counted along it

For `CCCCCCO` [1-hexanol], the “binding affinity (in words)” value was “very weak affinity” in [1] (pH 4.0) and “strong binding affinity” in assay [1] (pH 6.8–8.0). Also, in [1] (pH 4.0, 5.0, 6.8, 7.4, 8.0, 8.8 in 20 mM Tris-HCl), the “effect of pH on binding affinity (in words)” value was “higher at pH 6.8–8.0 than at pH 4.0–5.0 and 8.8”. Moreover, the Ki in assay [2] was 2.67 ± 0.34 µM; in assay [3] it was 1.8 ± 0.15 µM; in assay [4] it was 12.5 ± 1.12 µM; in assay [5] (read-out: Ki (μM) T27A, mutant T27A, – = did not displace 50% 1-NPN at ligand up to 24 μM), over 24 µM. In addition, in [4] (mutant L30A compared with wild-type rGmolCSP8), the “fold decrease in binding vs wild-type” value is on record as 6 fold. Also, the IC50 in assay [5] is over 24 µM; in assay [6], 2.26 ± 0.34 µM. In addition, the “binding to mutant T27A (in words)” value in assay [5] (mutant T27A compared with wild-type) is on record as “abolished the ability to bind”. Moreover, in [6] (wild-type rGmolCSP8, pH 7.4), the “binding to rGmolCSP8 (in words)” value is listed as “strongest binding affinities”.
As for `c1ccc(Nc2cccc3ccccc23)cc1` [1-NPN, N-phenyl-1-naphthylamine], the Kd in assay [7] amounted to 14.4 µM; in [8] it was 11.7 µM; in assay [9], 13.8 µM; in [10], 11.2 µM; in assay [11], 11.8 µM.
As for `CCCCCCCCCCCCO` [1-dodecanol], the IC50 in assay [6] (2 μM rGmolCSP8 and 2 μM 1-NPN, 20 mM Tris-HCl pH 7.4, read-out: IC50) was found to be 13.5 ± 0.83 µM. In addition, the Ki is 12.9 ± 0.56 µM in [6] (2 μM rGmolCSP8 and 2 μM 1-NPN, pH 7.4, calculated from IC50, read-out: Ki); 3.24 µM in assay [12]; 4.39 µM in assay [13]; 1.22 µM in assay [14]. Besides, in assay [6] (wild-type rGmolCSP8, pH 7.4), the “binding affinity class (strong/medium/weak)” value is “medium (an IC50 value between 10 and 20 μM indicated that ligands demonstrated medium binding ability to protein)”.

One may read the Ki as the dissociation constant of the complex between target and ligand, obtained from inhibition or displacement. Broadly, the IC50 is the concentration that inhibits the measured activity by half. The Kd is the constant that tells how readily two partners part at equilibrium.
